Assay results taken from PubChem BioAssay (NCI).
Where “and” joins values, the source holds several entries; their conditions need not be identical. Equal entries are not always repeated.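 Growth conditions: 96-well plates. Treatment: test compound, 48 hours, 5 concentrations. Analysis: linear interpolation between bracketing concentrations; unreached endpoints set to highest concentration. The concentration for 50% growth inhibition is given as GI50. TGI denotes the concentration required for complete inhibition of growth.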

Experiments:
Test in all cases: DTP human tumour cell line panel, 48 h
SN12C renal = test system: SN12C renal
OVCAR-5 ovarian = test system: OVCAR-5 ovarian
SNB-75 CNS = test system: SNB-75 CNS
SF-295 CNS = test system: SF-295 CNS
SK-OV-3 ovarian = test system: SK-OV-3 ovarian
M14 melanoma = test system: M14 melanoma
MOLT-4 leukemia = test system: MOLT-4 leukemia
HS 578T breast = test system: HS 578T breast
A549 NSCLC = test system: A549 NSCLC
HOP-92 NSCLC = test system: HOP-92 NSCLC

SMILES | GI50 (SN12C renal) | TGI (SN12C renal) [µM] | GI50 (OVCAR-5 ovarian) | TGI (OVCAR-5 ovarian) | GI50 (SNB-75 CNS) | TGI (SNB-75 CNS) | GI50 (SF-295 CNS) | TGI (SF-295 CNS) [µM] | GI50 (SK-OV-3 ovarian) [µM] | TGI (SK-OV-3 ovarian) | GI50 (M14 melanoma) | TGI (M14 melanoma) | GI50 (MOLT-4 leukemia) [µM] | TGI (MOLT-4 leukemia) [µM] | GI50 (HS 578T breast) | TGI (HS 578T breast) | GI50 (A549 NSCLC) [µM] | TGI (A549 NSCLC) | GI50 (HOP-92 NSCLC) | TGI (HOP-92 NSCLC)
CCCCC[C@H]1C/C=C2/C(=O)C=C[C@@H]2C/C=C\CCCC(=O)O[C@@H](CCCCC)C/C=C2/C(=O)C=C[C@@H]2C/C=C\CCCC(=O)O1 | 0.105 µM | 0.796 | 0.566 µM | 1.31 µM | 0.552 µM | 2.4 µM | 0.506 µM | 1.29 | 0.824 | 2.39 µM | 0.273 µM | 1.01 µM | 0.0828 | 0.898 | 1.28 µM | 10.1 µM | 0.528 | 1.35 µM | 0.593 µM | 1.2 µM
C=CCC1(O)c2ccccc2C(=O)c2c(NCCN(CC(=O)OCC)CC(=O)OCC)cccc21 (stereo not drawn) | 57 µM | > 100 | > 100 µM | > 100 µM | > 100 µM | > 100 µM | > 100 µM | > 100 | > 100 | > 100 µM | > 100 µM | > 100 µM | 75.6 | > 100 | > 100 µM | > 100 µM | > 100 | > 100 µM | > 100 µM | > 100 µM
CCOC(=O)c1cc2c(n1Cc1cccc(OC)c1)-c1oncc1CCC2 | 6.46 µM | > 100 | 6.31 µM | > 100 µM | 0.927 µM | 6.56 µM | 0.616 µM | > 100 | 3.48 | > 100 µM | 0.693 µM | > 100 µM | 3.18 | > 100 | 1.6 µM | 24.8 µM | 0.915 | > 100 µM | 2.68 µM | 49.2 µM
C#CC1(O)C(COP(=O)(O)OC(COCCCCCCCCCCCCCCCCCC)COP(=O)(O)OCC2OC(n3cc(F)c(=O)[nH]c3=O)CC2O)OC(n2ccc(N)nc2=O)C1O (stereo not drawn) | – | > 65.1 | 1.04 µM and 2.99 µM | > 46.2 µM and 68.6 µM | 0.343 µM and 0.975 µM | 18.7 µM and 30.2 µM | < 0.021 µM and 0.0441 µM | – | – | 16.2 µM and > 100 µM | 1.53 µM and 0.218 µM | 24.3 µM and 2.74 µM | – | > 100 | 2.12 µM and 1.03 µM | 44.8 µM and 17.2 µM | – | > 38.3 µM and 22.6 µM | 33.4 µM | 10.6 µM and > 95.6 µM
CCN(Cc1ccc(F)cc1)c1ccc(CO)c(F)c1 | 19.5 µM | 99.1 | 1.26 µM | 4.13 µM | 10 µM | > 86.4 µM | 5.7 µM | 31.7 | 15.9 | 80.7 µM | 20.4 µM | > 67.5 µM | 21.2 | 57.6 | 17.2 µM | > 75.5 µM | 10.5 | > 66.1 µM | 9.52 µM | 37.9 µM
NC(=O)c1ccc(I)c(N=O)c1 | 55.8 µM | > 100 | 71.9 µM | > 100 µM | 19.9 µM | 69.4 µM | > 100 µM | > 100 | > 100 | > 100 µM | 30.5 µM | 83.1 µM | 36.5 | > 100 | 38.5 µM | > 100 µM | 42.1 | > 100 µM | 67.1 µM | > 100 µM
O=C1C(N2CC2)=C(N2CC2)C(=O)C(N2CC2)=C1N1CC1 | < 0.0228 µM | 1.45 | 2.29 µM | 6.92 µM | 0.158 µM | 1.11 µM | < 0.0211 µM | 1 | 0.123 | 0.891 µM | < 0.0211 µM | 0.199 µM | 0.765 | > 100 | 1.28 µM | 6.21 µM | 0.059 | 0.428 µM | 2.99 µM | 29.7 µM
COc1ccc2c(=O)cc(-c3ccncc3)oc2c1OC | – | > 100 | – | > 100 µM | – | 41 µM | – | > 100 | – | > 100 µM | – | 39 µM | – | 41.7 | – | 53.7 µM | – | > 100 µM | – | 55.2 µM
COc1cccc(-c2nn(-c3ccccc3)cc2-c2ccnc(NCCCNC(=O)Nc3ccc(Cl)c(Cl)c3)c2)c1 | 5.73 µM | 25 | 3.53 µM | 25.4 µM | 2.52 µM | 19.2 µM | 2.38 µM | 6.43 | 4.92 | 18.6 µM | 1.97 µM | 4.45 µM | 1.95 | 5.85 | 2.35 µM | 7.53 µM | 3.79 | 13.4 µM | 2.32 µM | 7.68 µM
COc1cc(NC(C)CCCN)c2ncccc2c1 (stereo not drawn) | 41.4 µM and > 84.4 µM | > 100 | – | > 100 µM | – | > 100 µM and 80.5 µM | – | > 100 | – | > 100 µM | 16.8 µM and 43.1 µM | 34.5 µM and > 73.6 µM | – | > 100 | – | > 100 µM | – | > 100 µM | 27.2 µM and 62.6 µM | > 100 µM
COC(=O)c1ccccc1OCc1cc(=O)oc2ccc(C)cc12 | – | > 100 | – | > 100 µM | – | 45.5 µM | – | > 81.2 | – | > 100 µM | – | > 100 µM | – | > 100 | – | > 100 µM | – | > 100 µM | – | > 74.7 µM
